Patent US4321254A, “Antiallergic imidodisulfamides” (SmithKline Corporation, priority 1980, dated 1982)

Tested on: slow reacting substance of anaphylaxis (SRS-A)
Test: Inhibition of SRS-A induced contraction of guinea pig ileum
Conditions: compound concentration 5×10^-6 M, partially purified SRS-A from guinea pig lung, agonist 40 μg/ml, 15 min, 5 µM
Description: The SRS-A antagonist activity of the compounds of this invention is measured by the ability of the active medicament to inhibit SRS-A induced contraction of guinea pig ileum. In this test system, sections of ileum are resected from guinea pigs and placed in 5 ml. tissue baths containing a modified Tyrode's solution. One end of the tissue is fixed to a glass tissue holder, the other is connected to a force-displacement transducer and the tissue is placed under a tension of 500 mg. Isometric tissue contractions are recorded on a six channel polygraph. Baths are constantly aerated with 95% O2 -5% CO2. After a 20 minute stabilization period a concentration of the appropriate agonist which provides a contraction height of 60-80% of the maximum obtainable to that agonist (as determined) from full sequential concentration--response curves in separate experiments) is added to the tissue bath and the response recorded. The procedure is repeated until reproducible responses are obtained. […] Percent inhibition produced by the test compound is calculated by substracting the mean percentage change in control tissue from the mean percentage change in tissues exposed to the test compound. Additional compounds are then evaluated as long as the tissue remains reproducibly responsive to the agonist. […]

SMILES: O=S(=O)(Nc1ccc2c(c1)CN(S(=O)(=O)NS(=O)(=O)N1CCc3ccc(NS(=O)(=O)c4ccc(Cl)cc4)cc3C1)CC2)c1ccc(Cl)cc1 [Compound 1, N,N'-bis[7-(4-chlorophenylsulfonamide)-1,2,3,4-tetrahydroisoquinolyl]disulfonylimide]
- percent antagonism of SRS-A induced contraction: 59%
